{"source": "patent US11492382B2", "about": "“Chimeric peptides with an antimicrobial domain and an inorganic binding domain” (priority 2017, dated 2022)", "key": {"[1]": {"tested_on": "S. epidermidis (ATCC 29886)", "test": "AlamarBlue assay, minimum bactericidal concentration", "format": "cell-based", "description": "(§1) The antimicrobial activity of TiBP-Spacer5-AMP was evaluated against two bacterial strains, S. mutans (American Type Culture Collection (ATCC) 25175, Manassas, Va.) and S. epidermidis (ATCC 29886). S. mutans cultures were prepared using Brain Heart Infusion Broth (BHI, BD Difco, Franklin Lakes, N.J.) and S. epidermidis using Nutrient Broth (NB, BD Difco) according to ATCC protocols. Bacterial pellets obtained from ATCC were rehydrated in appropriate media of which several drops were used to streak either BHI or NB agar plates. Bacteria streaked agar plates were subsequently incubated for 24 h. Agar plates and cultures were incubated at 37° C. in the presence of 5% CO2-supplemented atmosphere for S. mutans and in aerobic atmosphere and 200 rpm shaking for S. epidermidis. Overnight cultures were made by aseptically transferring a single-colony forming unit (CFU) into 10 mL of appropriate broth media followed by incubation in appropriate conditions for 16 h. Bacteria from overnight cultures were used to inoculate fresh media and grown to mid-log phase.\n(§2) The MIC of TiBP-Spacer5-AMP against S. mutans and S. epidermidis in solution was evaluated in 96 well plates (Corning Costar 3370, Corning, N.Y.) spectrophotometrically over a period of 24 h by obtaining a measurement for the optical density at 600 nm (OD600) every two hours. […]"}, "S. mutans (ATCC 25175) [2]": {"tested_on": "S. mutans (ATCC 25175)", "test": "AlamarBlue assay, minimum bactericidal concentration", "format": "cell-based", "description": "as §1, §2"}, "NIH/3T3 fibroblast": {"tested_on": "NIH/3T3 fibroblast", "test": "Host cell attachment and spreading on coated titanium surfaces", "format": "cell-based", "details": "60 μM bio-coating", "description": "Host cell response was evaluated with a fibroblast cell line (NIH/3T3 ATCC CRL-1658). The fibroblast cells were cultured following the ATCC protocol. Briefly, cells were grown in DMEM media (Gibco 11995073, Carlsbad, Calif.) supplemented with 10% fetal bovine serum (Gibco 10437036) and 1% penicillin-streptomycin (Gibco 15070063) and incubated at 37° C. in a 5% CO2 atmosphere. Fibroblasts were passaged using 0.25% TrypsinEDTA (Gibco 25200072) and cells were counted to ensure correct seeding concentrations. Fibroblast cell response to 60 μM TiBP-Spacer5AMP bio-coating, 200 μg/mL collagen (Sigma C7661, St. Louis, Mo.) coating (positive control) and bare, untreated (negative control) titanium foil and implant surfaces was studied. Fibroblast cells at a concentration of 8×10^5 cells/mL were added to sterile 24 well plates containing TiBP-Spacer5-AMP coated, collagen coated, or bare, untreated foils or implants and incubated for 24 h at 37° C. in a 5% CO2 atmosphere. Fibroblast attachment and spreading were evaluated by fixing fibroblasts on titanium surfaces with 2% glutaraldehyde solution, followed by dehydration in 10%, 30%, 60%, 90% and 100% ethanol. Fixed fibroblasts on titanium surfaces were washed twice with PBS, permeabilized with TritonX (Sigma T8787), sealed with BSA (Fisher BioReagents BP671-10, Carlsbad, Calif.), and stained with Alexa Fluor488-Phalloidin dye (Invitrogen). Unbound dye was removed by washing with PBS and substrates were imaged with a fluorescent microscope at 4, 10 and 20 times magnification. Five representative images of each surface (n=3) were obtained and analyzed with ImageJ Software and then subjected to statistical analysis. Cell attachment was determined as number of cells per square millimeter and the percentage of the image surface covered by attached cells. Another measure of viability, metabolic activity was determined using a MTT (3-(4,5-dimethylthiazol-2-yl)-25-diphenyltetrazolium bromide) assay (Sigma M5655). […] Absorbance was measured at 570 nm."}, "[3]": {"tested_on": "S. epidermidis (ATCC 29886)", "test": "MIC in solution, OD600 over 24 h", "format": "cell-based", "design": "key to Growth: Entries with a “+” indicate bacterial growth did occur at that concentration of TiBP-Spacer5-AMP; entries with a “−” indicate inhibition of bacterial growth", "details": "for Growth: S. epidermidis", "description": "as §1\n(§3) The MIC of TiBP-Spacer5-AMP against S. mutans and S. epidermidis in solution was evaluated in 96 well plates (Corning Costar 3370, Corning, N.Y.) spectrophotometrically over a period of 24 h by obtaining a measurement for the optical density at 600 nm (OD600) every two hours. Optical density at 600 nm was measured using a Cytation3 microplate reader (Bio Tek Instruments, Winooski, Vt.). Bacteria grown to mid-log phase at a density of 10^7 CFU/mL were cultured at appropriate growth conditions in appropriate broth media only as a control or in broth media containing a range from 5-70 μM of TiBP-Spacer5-AMP for S. mutans and 1-10 μM for S. epidermidis. The OD600 measurements obtained, relating optical density to bacteria CFUs/mL, were plotted versus time to generate standard growth curves. The minimum concentration of TiBP-Spacer5-AMP at which no increase in optical density measurement, corresponding to no bacterial growth occurring was designated as the MIC. AlamarBlue assay (Invitrogen, Carlsbad, Calif.) was used for determination of a minimum bactericidal concentration of TiBP-Spacer5-AMP. Bacteria in broth media only and with the TiBPSpacer5-AMP concentrations described in the MIC experiments were prepared in 96 well plates. AlamarBlue reagent was added to experimental wells and incubated for two hours at 37° C. Experimental wells were observed and evaluated for color change. Wells corresponding to concentrations of TiBP-Spacer5-AMP where no color change occurred were determined to have bactericidal concentrations of the chimeric peptide."}, "S. mutans (ATCC 25175) [4]": {"tested_on": "S. mutans (ATCC 25175)", "test": "MIC in solution, OD600 over 24 h", "format": "cell-based", "design": "key to Growth: Entries with a “+” indicate bacterial growth did occur at that concentration of TiBP-Spacer5-AMP; entries with a “−” indicate inhibition of bacterial growth", "details": "for Growth: S. mutans", "description": "as §1, §3"}, "S. epidermidis": {"tested_on": "S. epidermidis", "test": "Antimicrobial activity on bio-coated titanium substrates, fluorescence imaging and ImageJ", "format": "cell-based", "from_the_text": "Two surfaces, 99% pure titanium foil (Alfa Aesar 43677, Ward Hill, Mass.) and titanium implant discs cut from standard rods used in posterior lumbar surgery (University of Kansas Medical Center Department of Neurosurgery, Kansas City, Kans.) were used for evaluation of TiBP-Spacer5-AMP biocoating antimicrobial activity. Titanium foils were cut into squares measuring 0.5 mm thick×1 cm×1 cm and 6 mm diameter implant rods were cut by the University of Kansas Medical Center Department of Neurosurgery with a standard orthopedic surgical rod cutter into 3 mm long disc segments. […]\nAntimicrobial activity of TiBP-Spacer5-AMP biocoated titanium surfaces against each bacterial strain was evaluated by culturing bacteria in 24 well plates containing bio-coated surfaces or bare, untreated control surfaces. […] Stained bacteria were imaged with a fluorescence microscope (Olympus Spin Disk Epifluorescent microscope, Richmond Hill, Ontario, Canada) at an excitation/emission wave number provided by the manufacturer. Five representative fluorescence images were taken for each sample (n=3) and the bacteria were quantified using ImageJ Software and then subjected to statistical analysis."}, "[5]": {"tested_on": "S. epidermidis (ATCC 29886)", "details": "in solution; previously published values; cited from earlier work"}, "S. mutans (ATCC 25175) [6]": {"tested_on": "S. mutans (ATCC 25175)", "details": "in solution; previously published values; cited from earlier work"}, "[7]": {"tested_on": "Escherichia coli, ATCC 25922", "excerpt": "The antibacterial activity against two strains of bacteria of a previously published cHABP1 peptide,^65,66 an antimicrobial peptide designed through artificial intelligence methods (HHC-36),^67 and a chimeric peptide cHABP1-GGG-HHC36 to functionalize calcium phosphate surfaces with antibacterial activity."}}, "note": "Entries after “also recorded” stand apart in the source; their conditions may differ. Where two headings read alike, the source gives them in different places. Ends that are not written are not given here. Peptide text beside a SMILES is read from it.", "data": [{"compound": "RPRENRGRERGLGSGGGLKLLKKLLKLLKKL [TiBP-Spacer5-AMP, RPRENRGRERGL-GSGGG-LKLLKKLLKLLKKL (SEQ ID NO: 10)]", "values": [{"measurement": "bactericidal concentration", "setting": "[1]", "result": 10, "unit": "µM"}, {"measurement": "bactericidal concentration", "setting": "S. mutans (ATCC 25175) [2]", "result": 60, "unit": "µM"}, {"measurement": "fibroblast surface coverage (spreading)", "setting": "NIH/3T3 fibroblast; titanium foils, compared to untreated control", "result": "greater coverage"}, {"measurement": "adhesion and spreading", "setting": "NIH/3T3 fibroblast; titanium implants, compared to collagen positive control", "result": "statistically comparable to the positive collagen controls"}, {"measurement": "cell attachment and spreading", "setting": "NIH/3T3 fibroblast; titanium implants, compared to untreated control", "result": "greater cell attachment and spreading compared to untreated controls; also recorded: statistically greater cell attachment and spreading properties"}, {"measurement": "Growth", "setting": "[3]; 1 μM", "result": "+"}, {"measurement": "Growth", "setting": "[3]; 2 μM", "result": "+"}, {"measurement": "Growth", "setting": "[3]; 3 μM", "result": "+"}, {"measurement": "Growth", "setting": "[3]; 4 μM", "result": "+"}, {"measurement": "Growth", "setting": "[3]; 5 μM", "result": "+"}, {"measurement": "Growth", "setting": "[3]; 6 μM", "result": "+"}, {"measurement": "Growth", "setting": "[3]; 7 μM", "result": "+"}, {"measurement": "Growth", "setting": "[3]; 8 μM", "result": "−"}, {"measurement": "Minimum Inhibitory Concentration (MIC) S. epidermidis", "setting": "[3]; in solution", "result": 8, "unit": "µM"}, {"measurement": "Growth", "setting": "S. mutans (ATCC 25175) [4]; 5 μM", "result": "+"}, {"measurement": "Growth", "setting": "S. mutans (ATCC 25175) [4]; 10 μM", "result": "+"}, {"measurement": "Growth", "setting": "S. mutans (ATCC 25175) [4]; 20 μM", "result": "+"}, {"measurement": "Growth", "setting": "S. mutans (ATCC 25175) [4]; 30 μM", "result": "+"}, {"measurement": "Growth", "setting": "S. mutans (ATCC 25175) [4]; 40 μM", "result": "+"}, {"measurement": "Growth", "setting": "S. mutans (ATCC 25175) [4]; 50 μM", "result": "−"}, {"measurement": "Growth", "setting": "S. mutans (ATCC 25175) [4]; 60 μM", "result": "−"}, {"measurement": "Growth", "setting": "S. mutans (ATCC 25175) [4]; 70 μM", "result": "−"}, {"measurement": "improvement (decrease) of MIC against S. mutans", "setting": "S. mutans (ATCC 25175) [4]; compared to TiBP-Spacer3-AMP", "result": "three-fold"}, {"measurement": "Minimum Inhibitory Concentration (MIC) S. mutans", "setting": "S. mutans (ATCC 25175) [4]; in solution", "result": 50, "unit": "µM"}, {"measurement": "Fold Improvement Compared to Uncoated Ti Surfaces, Implants", "setting": "S. epidermidis; implant discs coated at 10 μM", "result": 48, "unit": "fold"}, {"measurement": "Fold Improvement Compared to Uncoated Ti Surfaces, Foils", "setting": "S. epidermidis; titanium foil coated at 10 μM", "result": 33, "unit": "fold"}]}, {"compound": "RPRENRGRERGL-GGG-LKLLKKLLKLLKKL (SEQ ID NO: 9) (RPRENRGRERGLGGGLKLLKKLLKLLKKL) [TiBP-Spacer3-AMP, comparative chimeric peptide with shorter spacer]", "values": [{"measurement": "Minimum Inhibitory Concentration (MIC) S. epidermidis", "setting": "[5]", "result": 5, "unit": "µM"}, {"measurement": "Minimum Inhibitory Concentration (MIC) S. mutans", "setting": "S. mutans (ATCC 25175) [6]", "result": 153, "unit": "µM"}]}, {"compound": "LKLLKKLLKLLKKL (SEQ ID NO: 8) [AMP, antimicrobial peptide]", "values": [{"measurement": "Minimum Inhibitory Concentration (MIC) S. epidermidis", "setting": "[5]", "result": 4, "unit": "µM"}, {"measurement": "Minimum Inhibitory Concentration (MIC) S. mutans", "setting": "S. mutans (ATCC 25175) [6]", "result": 38, "unit": "µM"}]}, {"compound": "CSCC[C@H](NC(=O)[C@@H](N)CS)C(=O)N[C@@H](CC(C)C)C(=O)N1CCC[C@H]1C(=O)N[C@@H](Cc1c[nH]cn1)C(=O)N[C@@H](Cc1c[nH]cn1)C(=O)NCC(=O)N[C@@H](C)C(=O)N[C@@H](CS)C(=O)O", "note": "[cHABP1, CMLPHHGAC (SEQ ID NO: 36)] (H-CMLPHHGAC-OH; N-terminus and C-terminus assumed)", "values": [{"measurement": "antibacterial activity by absorbance at 600 nm (FIG. 11)", "setting": "[7]; E. coli", "result": "some antibacterial activity in the higher tested concentrations"}, {"measurement": "antibacterial activity by absorbance at 600 nm (FIG. 11)", "setting": "S. mutans; S. mutans", "result": "some antibacterial activity in the higher tested concentrations"}]}, {"compound": "KRWWKWWRR [HHC-36, KRWWKWWRR (SEQ ID NO: 37)]", "values": [{"measurement": "E. coli IC50", "setting": "[7]", "result": 12, "unit": "µg/mL"}, {"measurement": "MIC estimate", "setting": "[7]; Escherichia coli, ATCC 25922", "result": 21.5, "unit": "µM"}, {"measurement": "S. mutans IC50", "setting": "S. mutans", "result": 3, "unit": "µg/mL"}, {"measurement": "MIC value", "setting": "S. mutans; S. mutans", "result": 10.8, "unit": "µM"}]}]}
